Usually IC50 stands for the concentration needed to halve the response being measured. A high value points to weaker potency in that assay. For orientation: EC50 means the midpoint of the concentration-response curve. Lower therefore signals greater potency.

Structures are written as SMILES.

In test [1] the target is T1, full-length NS3/NS4A-2 (HCV NS3 protease) (Hepatitis C virus genotype 1b, UniProt Q9WMX2).
T1 construct: Recombinant E. coli or Baculovirus full-length NS3; host or cells: E. coli or baculovirus (BV) expression
T1 sequence (Q9WMX2 1027-1657): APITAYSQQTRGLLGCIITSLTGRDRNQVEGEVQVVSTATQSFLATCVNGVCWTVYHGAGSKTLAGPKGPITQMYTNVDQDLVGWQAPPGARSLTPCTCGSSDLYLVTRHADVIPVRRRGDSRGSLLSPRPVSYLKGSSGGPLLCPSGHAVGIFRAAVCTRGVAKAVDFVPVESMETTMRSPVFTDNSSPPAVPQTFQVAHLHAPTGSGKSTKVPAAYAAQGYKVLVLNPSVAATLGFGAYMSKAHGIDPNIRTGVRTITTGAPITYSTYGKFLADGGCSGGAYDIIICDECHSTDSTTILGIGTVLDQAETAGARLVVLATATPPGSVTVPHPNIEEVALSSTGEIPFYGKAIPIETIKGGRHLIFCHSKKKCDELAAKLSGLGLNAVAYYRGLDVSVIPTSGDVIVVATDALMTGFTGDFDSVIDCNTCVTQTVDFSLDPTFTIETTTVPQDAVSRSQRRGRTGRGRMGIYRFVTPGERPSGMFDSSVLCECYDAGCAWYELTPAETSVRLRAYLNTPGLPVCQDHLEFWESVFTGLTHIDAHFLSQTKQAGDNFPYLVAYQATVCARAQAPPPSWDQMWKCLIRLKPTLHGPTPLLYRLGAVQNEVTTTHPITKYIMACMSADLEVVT
T1 sequence (Q9WMX2 1658-1711): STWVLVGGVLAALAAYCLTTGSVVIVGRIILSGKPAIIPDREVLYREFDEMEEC
The test can be described thus: NS3 Inhibition Assay (NS3-NS4 protease assay, RETS1 substrate). It counts as biochemical. The conditions noted are these: NS3/NS4A-2 protease. As for the experimental part:
NS3 Complex Formation with NS4A-2.
Recombinant E. coli or Baculovirus full-length NS3 was diluted to 3.33 μM with assay buffer and transferred material to an eppendorf tube and placed in a water bath in a 4° C. refrigerator. The appropriate amount of NS4A-2 diluted to […] in assay buffer was added to equal the volume of NS3 above (conversion factor—3.8 mg/272 μL assay buffer). The material was transferred to an eppendorf tube and placed in water bath in a 4° C. refrigerator.
After equilibration to 4° C., equal volumes of NS3 and NS4A-2 solutions were combined in an eppendorf tube, mix gently with a manual pipettor, and incubate mixture for 15 minutes in the 4° C. water bath. Final concentrations in the mixture are 1.67 μM NS3, 4.15 mM NS4A-2 (2485-fold molar excess NS4A-2).
After 15 minutes at 4° C., the NS3/NS4A-2 eppendorf tube was removed and place it in a room temperature water bath for 10 minutes. NS3/NS4A-2 was aliquoted at appropriate volumes and store at −80° C. (E. coli NS3 run at 2 nM in assay, aliquot at 25 μL. BV NS3 run at 3 nM in assay, aliquot at 30 μL).
Step a. Sample compounds were dissolved to 10 mM in DMSO then diluted to 2.5 mM (1:4) in DMSO. Typically, compounds were added to an assay plate at 2.5 mM concentration, yielding upon dilution a starting concentration of 50 microM in the assay inhibition curve. Compounds were serial diluted in assay buffer to provide test solutions at lower concentrations.
Step b. The E. coli. NS3/NS4A-2 was diluted to 4 nM NS3 (1:417.5 of 1.67 μM stock−18 μL1.67 μM stock+7497 μL assay buffer). The BV NS3/NS4A-2 was diluted to 6 nM NS3 (1:278.3 of 1.67 μM stock−24 μL1.67 μM stock+6655 μL assay buffer).
Step c. Using the manual multichannel pipettor, and being careful not to introduce bubbles into the plate, 50 μL assay buffer were added to wells A01-H01 of a black Costar 96-well polypropylene storage plate.
Step d. Using the manual multichannel pipettor, and being careful not to introduce bubbles into the plate, 50 μL of diluted NS3/NS4A-2 from Step b were added to wells A02-H12 of the plate in Step c.
Step e. Using the manual multichannel pipettor, and being careful not to introduce bubbles into the plate, 25 μL of the wells in drug dilution plate in Step a were transferred to corresponding wells in assay plate in Step d. The tips on the multichannel pipettor were changed for each row of compounds transferred.
Step f Using the manual multichannel pipettor, and being careful not to introduce bubbles into the plate, the contentes of the wells from the assay plate in Step e were mixed by aspirating and dispensing 35 μL of the 75 μL in each well five times. The tips on multichannel pipettor were changed for each row of wells mixed.
Step g. The plate was covered with a polystyrene plate lid, and the plate from Step f containing NS3 protease and sample compounds was pre-incubated 10 minutes at room temperature.
While plate from Step g is pre-incubating, the RETS1 substrate was diluted in a 15 mL polypropylene centrifuge tube. The RETS1 substrate was diluted to 8 μM (1:80.75 of 646 μM stock—65 μL 646 μM stock+5184 μL assay buffer).
After the plate in Step g was done pre-incubating, and using the manual multichannel, 25 μL of substrate were added to all wells on the plate. The contents of the wells of the plate were quickly mixed, as in Step f, mixing 65 μL of the 100 μL in the wells.
The plate was read in kinetic mode on the Molecular Devices SpectraMax Gemini XS plate reader. Reader settings: Read time: 30 minutes, Interval: 36 seconds, Reads: 51, Excitation λ: 335 nm, Emission λ: 495 nm, cutoff: 475 nm, Automix: off, Calibrate: once, PMT: high, Reads/well: 6, Vmax pts: 21 or 28/51 depending on length of linearity of reaction
IC50s are determined using a four parameter curve fit equation, and converted to Ki's using the following Km's: […]
Full-length E. coli NS3−2.03 μM
Full-length BV NS3−1.74 μM
where Ki=IC50/(1+[S]/Km))

Test [2] concerns HCV sub-genomic replicon, GS4.3 (HuH-7 hepatoma cells). In words: Quantitation by ELISA of NPTII in the HCV sub-genomic replicon, GS4.3. It counts as cell-based. Conditions: Hepatitis C virus, GS4.3 replicon cells, 72 h incubation. The text has this: Quantitation by ELISA of the Selectable Marker Protein, Neomycin Phosphotransferase II (NPTII) in the HCV Sub-Genomic Replicon, GS4.3
The HCV sub-genomic replicon (1377/NS3-3′, accession No. AJ242652), stably maintained in HuH-7 hepatoma cells, was created by Lohmann et al. Science 285: 110-113 (1999). The replicon-containing cell culture, designated GS4.3, was obtained from Dr. Christoph Seeger of the Institute for Cancer Research, Fox Chase Cancer Center, Philadelphia, Pa.
GS4.3 cells were maintained at 37° C., 5% CO2, in DMEM (Gibco 11965-092) supplemented with L-glutamine 200 mM (100×) (Gibco25030-081), non-essential amino acids (NEAA)(Biowhittaker 13-114E), heat-inactivated (HI) Fetal Bovine Serum(FBS)(Hyclone SH3007.03) and 750 μg/mL geneticin (G418)(Gibco 10131-035). Cells were sub-divided 1:3 or 4 every 2-3 days.
24 h prior to the assay, GS4.3 cells were collected, counted, and plated in 96-well plates (Costar 3585) at 7500 cells/well in […] standard maintenance medium (above) and incubated in the conditions above. To initiate the assay, culture medium was removed, cells were washed once with PBS (Gibco 10010-023) and 90 μl Assay Medium (DMEM, L-glutamine, NEAA, 10% HI FBS, no G418) was added. Inhibitors were made as a 10× stock in Assay Medium, (3-fold dilutions from 10 μM to […] final concentration, final DMSO concentration 1%), […] were added to duplicate wells, plates were rocked to mix, and incubated as above for 72 h.
An NPTII Elisa kit was obtained from AGDIA, Inc. (Compound direct ELISA test system for Neomycin Phosphotransferase II, PSP 73000/4800). Manufacturer's instructions were followed, with some modifications. 10×PEB-1 lysis buffer was made up to include 500 μM PMSF (Sigma P7626, 50 mM stock in isopropanol). After 72 h incubation, cells were washed once with PBS and […] PEB-1 with PMSF was added per well. Plates were agitated vigorously for 15 minutes, room temperature, then frozen at −70° C. Plates were thawed, lysates were mixed thoroughly, and 100 μl were applied to an NPTII Elisa plate. A standard curve was made. Lysate from DMSO-treated control cells was pooled, serially diluted with PEB-1 with PMSF, and applied to duplicate wells of the ELISA plate, in a range of initial lysate amount of 150 μL-2.5 μL. In addition, 100 μL buffer alone was applied in duplicate as a blank. Plates were sealed and gently agitated at room temperature for 2 h. Following capture incubation, the plates were washed 5×300 μL with PBS-T (0.5% Tween-20, PBS-T was supplied in the ELISA kit). For detection, a 1× dilution of enzyme conjugate diluent MRS-2 (5×) was made in PBS-T, into which 1:100 dilutions of enzyme conjugates A and B were added, as per instructions. Plates were resealed, and incubated with agitation, covered, room temperature, for 2 h. The washing was then repeated and 100 μL, of room temperature TMB substrate was added. After approximately 30 minutes incubation (room temperature, agitation, covered), the reaction was stopped with 50 μL, 3M sulfuric acid. Plates were read at 450 nm on a Molecular Devices Versamax plate reader.
Inhibitor effect was expressed as a percentage of DMSO-treated control signal, and inhibition curves were calculated using a 4-parameter equation: y=A+((B−A)/(1+((C/x)̂D))), where C is half-maximal activity or EC50.

For the molecule `CC[C@@H]1C[C@]1(NC(=O)[C@@H]1C[C@@H](Oc2cc(-c3nc(C(C)C)cs3)nc3c(C)c(OC)ccc23)CN1C(=O)[C@@H](Nc1ccc(F)c(C(F)(F)F)c1)C(C)(C)C)C(=O)NS(=O)(=O)C1(C)CC1` [Compound 301], in test [1], the IC50 is below 100 nM. For the same molecule, in test [2], the EC50 was below 100 nM.
`CC[C@@H]1C[C@]1(NC(=O)[C@@H]1C[C@@H](Oc2cc(-c3nc(C(C)C)cs3)nc3c(C)c(OC)ccc23)CN1C(=O)[C@@H](Nc1ccc(C(F)(F)F)cc1)C(C)(C)C)C(=O)NS(=O)(=O)C1(C)CC1` [Compound 299]: in test [1], the IC50 was below 100 nM. For the same molecule, the 50% effective concentration (EC50) in test [2] was below 100 nM.
In test [1], `CC[C@@H]1C[C@]1(NC(=O)[C@@H]1CC(Oc2cc(-c3nc(C(C)C)cs3)nc3c(C)c(OC)ccc23)CN1C(=O)[C@@H](Nc1cccc(C(F)(F)F)c1)C(C)(C)C)C(=O)NS(=O)(=O)C1CC1` (stereo partly drawn) [Compound 335] showed an IC50 below 100 nM. This molecule had an EC50 in test [2] below 100 nM.
As for `CC(C)(C)[C@H](Nc1cc(F)cc(C(F)(F)F)c1)C(=O)N1C[C@H](OC(=O)N2Cc3cccc(Cl)c3C2)C[C@H]1C(=O)N[C@]1(C(=O)NS(=O)(=O)C2(C)CC2)C[C@H]1C1CC1` [Compound 298], the half-inhibitory concentration (IC50) in test [1] is below 100 nM. This molecule gave an EC50 in test [2] below 100 nM.
Molecule `CC[C@@H]1C[C@]1(NC(=O)[C@@H]1C[C@@H](OC(=O)N2Cc3cccc(F)c3C2)CN1C(=O)[C@@H](Nc1cccc(C(=O)O)c1)C(C)(C)C)C(=O)NS(=O)(=O)C1CC1` [Compound 5] yielded a half-maximal inhibitory concentration (IC50) in test [1] below 100 nM. The same molecule yielded an EC50 in test [2] above 1000 nM.
In test [1], `CC[C@@H]1C[C@]1(NC(=O)[C@@H]1C[C@@H](Oc2cc(-c3nc(C(C)C)cs3)nc3c(C)c(OC)ccc23)CN1C(=O)[C@@H](Nc1ccc(F)c(C(F)(F)F)c1)C(C)(C)C)C(=O)NS(=O)(=O)C1CC1` [Compound 308] showed an IC50 below 100 nM. The molecule also displayed an EC50 in test [2] below 100 nM.
In test [1], `C=C[C@@H]1C[C@]1(NC(=O)[C@@H]1C[C@@H](Oc2cc(-c3nc(C(C)C)cs3)nc3c(C)c(OC)ccc23)CN1C(=O)[C@@H](Nc1ccccc1[N+](=O)[O-])C(C)(C)C)C(=O)NS(=O)(=O)C1CC1` [Compound 351] came in with an IC50 of 100 to 1000 nM. The molecule also showed an EC50 in test [2] below 100 nM.
For the molecule `CC[C@@H]1C[C@]1(NC(=O)[C@@H]1C[C@@H](OC(=O)N2Cc3cccc(F)c3C2)CN1C(=O)[C@@H](Nc1ccc(S(=O)(=O)N2CCNCC2)cc1)C(C)(C)C)C(=O)NS(=O)(=O)C1CC1` [Compound 17], the IC50 in test [1] is below 100 nM. The EC50 in test [2] is above 1000 nM.
In the case of `C=C[C@@H]1C[C@]1(NC(=O)[C@@H]1C[C@@H](Oc2cc(-c3nc(C(C)C)cs3)nc3c(C)c(OC)ccc23)CN1C(=O)[C@@H](Nc1ccc(F)c(C(F)(F)F)c1)C(C)(C)C)C(=O)NS(=O)(=O)N(C)C` [Compound 400], the IC50 in test [1] was below 100 nM. For the same molecule, the EC50 in test [2] is below 100 nM.
Consider `CC[C@@H]1C[C@]1(NC(=O)[C@@H]1C[C@@H](Oc2cc(-c3nc(C(C)C)cs3)nc3c(C)c(OC)ccc23)CN1C(=O)[C@@H](Nc1ccc(F)c(C(F)(F)F)c1)C(C)(C)C)C(=O)NS(=O)(=O)N(C)C` [Compound 309], for which, in test [1], the IC50 was below 100 nM. The concentration for a half-maximal effect (EC50) in test [2] was below 100 nM.
Molecule `C=C[C@@H]1C[C@]1(NC(=O)[C@@H]1C[C@@H](Oc2cc(-c3nc(C(C)C)cs3)nc3c(C)c(OC)ccc23)CN1C(=O)[C@@H](Nc1ccc(F)c(C(F)(F)F)c1)C(C)(C)C)C(=O)NS(=O)(=O)C1CC1` [Compound 306] had an IC50 in test [1] below 100 nM. In test [2], this molecule came in with an EC50 below 100 nM.
The molecule `CC[C@@H]1C[C@]1(NC(=O)[C@@H]1C[C@@H](Oc2cc(-c3nc(C(C)C)cs3)nc3c(C)c(OC)ccc23)CN1C(=O)[C@@H](Nc1ccccc1)C(C)(C)C)C(=O)NS(=O)(=O)C1CC1` [Compound 352] gave an IC50 in test [1] below 100 nM. The half-maximal effective concentration (EC50) in test [2] was below 100 nM.
In test [1], `C=C[C@@H]1C[C@]1(NC(=O)[C@@H]1C[C@@H](Oc2cc(-c3nc(C(C)C)cs3)nc3c(C)c(OC)ccc23)CN1C(=O)[C@@H](Nc1cc(F)cc(C(F)(F)F)c1)C(C)(C)C)C(=O)NS(=O)(=O)N(C)C` [Compound 307] yielded an IC50 below 100 nM. In addition, the 50% effective concentration (EC50) in test [2] was below 100 nM.
Molecule `CC[C@@H]1C[C@]1(NC(=O)[C@@H]1C[C@@H](OC(=O)N2Cc3cccc(F)c3C2)CN1C(=O)[C@@H](Nc1cccc(OC(F)(F)F)c1)C(C)(C)C)C(=O)NS(=O)(=O)C1CC1` [Compound 12] showed an IC50 in test [1] below 100 nM. Further, the EC50 in test [2] was below 100 nM.
`CC[C@@H]1C[C@]1(NC(=O)[C@@H]1C[C@@H](Oc2nc3ccccc3n2CC)CN1C(=O)[C@@H](Nc1cccc(C(F)(F)F)c1)C(C)(C)C)C(=O)NS(=O)(=O)C1(C)CC1` [Compound 232] had an IC50 in test [1] below 100 nM. This molecule also came in with an EC50 in test [2] below 100 nM.

For the origin of these results see US20100119479A1, “THERAPEUTIC ANTIVIRAL PEPTIDES” (INTERMUNE, INC., priority 2008, published 2010).
